In paper PMC7349888, “Synthesis and Evaluation of Dodecaboranethiol Containing Kojic Acid (KA-BSH) as a Novel Agent for Boron Neutron Capture Therapy” (Cells, 2020):
Where “and” joins values, the source holds several entries; their conditions need not be identical. Identical values can stand only once.

Experiments:
[1] = test system: F98 rat glioma cells; test: Cell viability assay (WST-8) in F98 cells; assay type: cell-based; settings: WST-8 test, read-out: IC50 (cytotoxicity)
Description: The cytotoxicity of KA-BSH was assayed using the water soluble tetrazolium (WST)-8 assay with a cell-counting kit (Wako Pure Chemicals, Osaka, Japan) following a modified version of the manufacturer-provided protocols. Relative cell survival was calculated according to Equation (1):(1) Relative cell survival (%)=absorbance value of compound treated well/absorbance value of untreated well×100

[2] = test system: F98 glioma bearing rats; test: Biodistribution in F98 glioma bearing rats (ICP-AES); assay type: in vivo, rat; settings: iv
Source text: All animal experimental procedures were approved by the Animal Use Review Board and Ethical Committee of Osaka Medical College (No. 25092, 28 October 2015) and Kyoto University Research Reactor Institute (KURRI, No. 25030-13, 1 April 2015), and performed following the Guide for the Care and Use of Laboratory Animals. Eight-week-old, male Fischer 344 rats weighing between 200 and 250 g were used (Japan SLC, Inc. Shizuoka, Japan). Rats were anesthetized with an intraperitoneal (ip) injection of a mixture of medetomidine 0.15 mg, midazolam 2 mg, and butorphanol 2.5 mg/kg body weight (bw). The head of each rat was fixed with a stereotactic frame (Model 900; David Kopf Instruments, Tujunga, CA, USA). The scalp was incised at the midline and a small burr hole was drilled into the skull (1 mm posterior and 4 mm right-lateral to the bregma), using an electric drill. And then, F98 glioma cells were injected into the brain using a 25 µL Hamilton microsyringe with a 26-gauge needle (model 1700 RN, Hamilton Bonaduz AG, Bonaduz, Switzerland). The needle was inserted at a 5 mm depth from the skull and F98 cells were diluted in 10 µL of DMEM containing low-gelling temperature agarose at a concentration of either 10^3 for therapeutic experiments or 10^5 cells for biodistribution experiments. They were injected over 30 s using an automatic infuser pump. The needle entry hole was immediately sealed with bone wax and the incised scalp was closed with 3-0 silk sutures (Ethicon, North Ryde, NSW). After surgery, all animals were given atipamezole hydrochloride (0.15 mg/kg bw, ip).
Biodistribution studies were performed in Fischer rats bearing intracerebral implants of F98 rat glioma cells. 10–13 days after tumor implantation of 10^5 F98 glioma cells, when signs of a progressively growing tumor were evident (weight loss, lethargy, hunching, and ataxia), biodistribution studies were initiated at which time the animals had tumors weighing 90–180 mg. […] To compare its biodistribution with that of BPA or BSH, another group of rats received an iv injection of BPA at a concentration of 10 mg ^10B/kg bw or BSH at a concentration of 30 mg ^10B/kg bw. Biodistribution was determined 1 and 3 h after termination of iv injection. Animals were euthanized by an overdose of sevoflurane following which tumors and normal tissues, consisting of ipsilateral brain, contralateral brain, blood, heart, lung, liver, spleen, kidney, skin, and muscle, were removed and weighed for ^10B determination by ICP-AES.

[3] = test system: F98 rat glioma cells; test: In vitro 10B uptake in F98 cells (ICP-AES); assay type: cell-based; settings: 24 h incubation in DMEM with 1 mM boron compound
Description: For the in vitro ^10B uptake study, B16 mouse melanoma cells, C6 rat glioma cells, and F98 rat glioma cells were used. B16 and C6 cells were used for in vitro testing at Osaka Prefecture University. Based on results from initial in vitro screening, the in vitro ^10B uptake study using F98 glioma cells were performed at Osaka Medical College. Four hundred thousand cells were seeded in a tissue culture dish (100 × 20 mm; Becton Dickinson, Franklin Lakes, NJ, USA) with DMEM supplemented with 10% FBS and 10% penicillin and streptomycin at 37 °C in a 5% CO2 atmosphere. After incubation for 4 days at 37 °C, the medium was removed, and DMEM with 10% FBS containing 1 mM KA-BSH, BSH, or BPA was added to each dish. The cells were incubated for an additional 24 h at 37 °C. The medium was then removed, and the cells were washed twice with 4 °C phosphate-buffered saline (PBS) and detached with trypsin–ethylenediamine tetraacetic acid solution. PBS was then added, and cells were digested overnight with 1 N nitric acid solution (Wako Pure Chemical Industries, Osaka, Japan), and ^10B uptake was determined by inductively coupled plasma atomic emission spectrometry (ICP-AES) using an iCAP6000 emission spectrometer (Hitachi High-Technologies, Tokyo, Japan).

## N[C@@H](Cc1ccc(B(O)O)cc1)C(=O)O [BPA, boronophenylalanine, reference compound]
[1]
  IC50: > 20000 µM
[2]; 10 mg 10B/kg, 1 h
  10B concentration, Blood: 6.65 µg 10B/g
  10B concentration, Contralateral brain: 3.19 µg 10B/g
  10B concentration, Heart: 6.12 µg 10B/g
  10B concentration, Ipsilateral brain: 2.94 µg 10B/g
  10B concentration, Kidney: 27.57 µg 10B/g
  10B concentration, Liver: 5.40 µg 10B/g
  10B concentration, Lung: 5.74 µg 10B/g
  10B concentration, Muscle: 5.25 µg 10B/g
  10B concentration, Skin: 7.22 µg 10B/g
  10B concentration, Spleen: 7.58 µg 10B/g
  10B concentration, Tumor: 13.54 µg 10B/g and 13.54 ± 4.82 µg 10B/g
  T/Bl (tumor to blood ratio): 2.00
  T/Br (tumor to normal contralateral brain ratio): 4.21
[2]; 10 mg 10B/kg, 3 h
  10B concentration, Blood: 4.41 µg 10B/g
  10B concentration, Contralateral brain: 2.95 µg 10B/g
  10B concentration, Heart: 3.92 µg 10B/g
  10B concentration, Ipsilateral brain: 3.29 µg 10B/g
  10B concentration, Kidney: 11.69 µg 10B/g
  10B concentration, Liver: 3.54 µg 10B/g
  10B concentration, Lung: 4.12 µg 10B/g
  10B concentration, Muscle: 4.89 µg 10B/g
  10B concentration, Skin: 4.80 µg 10B/g
  10B concentration, Spleen: 6.02 µg 10B/g
  10B concentration, Tumor: 11.05 µg 10B/g
  T/Bl (tumor to blood ratio): 2.53
  T/Br (tumor to normal contralateral brain ratio): 3.83
[3]
  10B concentration of F98 rat glioma cells: 0.654 ± 0.062 µg 10B/10^7 cells

## dodecaboranethiol [BSH, reference compound]
[1]
  IC50: 1680 µM
[2]; 30 mg 10B/kg, 1 h
  10B concentration, Blood: 19.17 µg 10B/g
  10B concentration, Contralateral brain: 0.32 µg 10B/g
  10B concentration, Heart: 3.25 µg 10B/g
  10B concentration, Ipsilateral brain: 0.44 µg 10B/g
  10B concentration, Kidney: 20.84 µg 10B/g
  10B concentration, Liver: 20.81 µg 10B/g
  10B concentration, Lung: 12.70 µg 10B/g
  10B concentration, Muscle: 5.25 µg 10B/g
  10B concentration, Skin: 7.99 µg 10B/g
  10B concentration, Spleen: 5.68 µg 10B/g
  10B concentration, Tumor: 5.49 µg 10B/g and 5.49 ± 0.25 µg 10B/g
  T/Bl (tumor to blood ratio): 0.29
  T/Br (tumor to normal contralateral brain ratio): 17.61
[2]; 30 mg 10B/kg, 3 h
  10B concentration, Blood: 5.16 µg 10B/g
  10B concentration, Contralateral brain: 0.24 µg 10B/g
  10B concentration, Heart: 1.15 µg 10B/g
  10B concentration, Ipsilateral brain: 0.36 µg 10B/g
  10B concentration, Kidney: 10.83 µg 10B/g
  10B concentration, Liver: 8.10 µg 10B/g
  10B concentration, Lung: 4.92 µg 10B/g
  10B concentration, Muscle: 0.87 µg 10B/g
  10B concentration, Skin: 4.00 µg 10B/g
  10B concentration, Spleen: 2.74 µg 10B/g
  10B concentration, Tumor: 3.01 µg 10B/g
  T/Bl (tumor to blood ratio): 0.61
  T/Br (tumor to normal contralateral brain ratio): 12.71
[3]
  10B concentration of F98 rat glioma cells: 0.508 ± 0.072 µg 10B/10^7 cells
